{
  "source": "patent US7354912B2",
  "about": "“Unique compositions of zwitterionic phospholipids and bisphosphonates and use of the compositions as bisphosphate delivery systems with reduced GI toxicity” (Board of Reagents, University of Texas System, priority 2000, dated 2008)",
  "key": {"[1]": {"system": "gastric mucosa", "assay": "acute bisphosphonate/indomethacin gastric injury model of Blank et al. (gastric lesion score, gastric bleeding)", "type": "in vivo, rat", "settings": "for Gastric Lesion Score (lesioned area, mm^2) / order of gastrotoxicity (FIG. 4): rats; for Gastric Lesion Score (lesioned area, mm^2): Indo 40 mg/kg, pamidronate 300 mg/kg, PC-pamidronate 1:1 weight ratio, n = 4-5 rats/group; for order of gastrotoxicity (FIG. 4): comparison of three bisphosphonates", "source_text": "(§1) The experiments investigated the effects of different bisphosphonates on the surface hydrophobicity and phospholipid concentration of the antral mucosa, using the animal model of Blank et. al. (Blank M A, Ems B L, Gibson G W, Myers W R, Berman S K, Phipps R J, Smith P N, Dig Dis Sci, 42, 281-288 (1997)), and compared the effects of these surface changes to the gastric toxicity of these drugs.\nLooking at FIG. 2, an antrum lesion score is plotted against time.\nThe model and the ability for phospholipids to inhibit bisphosphonate GI toxicity was investigated in pilot preclinical studies using the rodent model of Blank et. al. (Blank M A, Ems B L, Gibson G W, Myers W R, Berman S K, Phipps R J, Smith P N, Dig Dis Sci, 42, 281-288 (1997)), where the bisphosphonate test drug was administered simultaneously with indomethacin.\n60 mg of Phospholipon 90G (90-93% pure PC) was dissolved in chloroform in a tube. […] The organic solvent was removed under nitrogen and resulting PC material was left under vacuum overnight to form a PC film in the tube. […] The solution was then added to the dried PC film in the tube. The mixture was sonicated in a both type sonicator at room temperature for 5 min., prior to administration to fasted rats.\n20 mg of dipalmitoyl PC (DPPC) and Phospholipon 90 G were dissolved in chloroform in separate tubes, and dried as described in Example 1.\n60 mg and 240 mg of Phospholipon 90G were dissolved in chloroform and dried as described in Example 1 in separate tubes."}, "[2]": {"system": "gastric mucosa", "settings": "rats, intragastric high doses, with indomethacin; cited from earlier work"}, "[3]": {"settings": "healthy subjects, up to 2 weeks, 40 mg or 10 mg; cited from earlier work"}, "[4]": {"system": "experimentally induced gastric ulcers", "settings": "rats; cited from earlier work"}, "[5]": {"system": "aspirin-induced gastric erosions", "settings": "10 mg and 40 mg doses; cited from earlier work"}, "[6]": {"system": "mucosae of the gastric body and antrum", "settings": "increasing doses over a 4 week period in rats; macroscopic and histological; cited from earlier work"}, "[7]": {"system": "gastric mucosa", "assay": "surface hydrophobicity and phospholipid (PC) concentration of the antral/gastric mucosa", "source_text": "as §1"}, "[8]": {"system": "gastric mucosa", "assay": "histological studies of gastric mucosa", "settings": "rat, in vivo"}},
  "note": "Marks after values point to notes of the source that are not given here.",
  "data": [
    {"smiles": "COc1ccc2c(c1)c(CC(=O)O)c(C)n2C(=O)c1ccc(Cl)cc1", "note": "[Indomethacin]", "values": [
      {"measurement": "Gastric Lesion Score (lesioned area, mm^2)", "setting": "[1]", "value": "0 ± 0", "unit": "mm^2"}
    ]},
    {"smiles": "NCCC(O)(P(=O)(O)O)P(=O)(O)O", "note": "[Pamidronate, 3-amino-1-hydroxypropylidene-1,1-bisphosphonic acid]", "values": [
      {"measurement": "irritation of the gastric mucosa (comparison of bisphosphonates)", "setting": "[2]", "value": "more irritating"},
      {"measurement": "gastric lesions (antrum lesion score, FIG. 2)", "setting": "[1]; rat stomach, over a 4 hr period, in combination with indomethacin", "value": "induced lesions in both the antrum and body of the rat stomach"},
      {"measurement": "order of gastrotoxicity (FIG. 4)", "setting": "[1]", "value": "pamidronate>>alendronate>risedronate"},
      {"measurement": "Gastric Lesion Score (lesioned area, mm^2)", "setting": "[1]", "value": "62 ± 11* mm^2"}
    ]},
    {"smiles": "NCCCC(O)(P(=O)(O)O)P(=O)(O)O", "note": "[alendronate, 4-amino-1-hydroxybutylidene-1,1-bisphosphonic acid]", "values": [
      {"measurement": "volunteers who developed one or more gastric ulcers", "setting": "[3]", "value": "10-20%"},
      {"measurement": "volunteers with observable gastric erosions", "setting": "[3]", "value": "40-60%"},
      {"measurement": "healing of experimentally induced gastric ulcers", "setting": "[4]", "value": "significantly delayed the healing"},
      {"measurement": "rate of healing of aspirin-induced gastric erosions", "setting": "[5]", "value": "significantly retarded"},
      {"measurement": "injurious effect on mucosae of the gastric body and antrum", "setting": "[6]", "value": "dose-dependent injurious effect"},
      {"measurement": "order of ability to attenuate the stomach's hydrophobic phospholipid barrier property (FIG. 5)", "setting": "[7]; rat, in vivo", "value": "pamidronate>>alendronate>risedronate"}
    ]},
    {"smiles": "CC(O)(P(=O)(O)O)P(=O)(O)O", "note": "[etidronate, 1-hydroxyethylidene-1,1-bisphosphonic acid]", "values": [
      {"measurement": "injurious effect on mucosae of the gastric body and antrum", "setting": "[6]", "value": "dose-dependent injurious effect"}
    ]},
    {"smiles": "O=P(O)(O)C(O)(Cc1cccnc1)P(=O)(O)O", "note": "[risedronate, I-hydroxy-2-(3-pyridyl) ethylidene-1,(3-pyridyl) ethylidene-1,1-bisphosphonic acid]", "values": [
      {"measurement": "surface injury to the gastric mucosa (histology)", "setting": "[8]", "value": "induced some surface injury"},
      {"measurement": "injurious effect on mucosae of the gastric body and antrum", "setting": "[6]", "value": "dose-dependent injurious effect"},
      {"measurement": "order of gastrotoxicity (FIG. 4)", "setting": "[1]", "value": "pamidronate>>alendronate>risedronate"},
      {"measurement": "order of ability to attenuate the stomach's hydrophobic phospholipid barrier property (FIG. 5)", "setting": "[7]; same order as gastrotoxicity maintained", "value": "pamidronate>>alendronate>risedronate"}
    ]}
  ]
}
